Reference: patent US8791148B2, “Substituted benzimidazolone derivatives, medicaments comprising them and their use” (AbbVie Deutschland GmbH & Co. KG, priority 2006, dated 2014)

Target: T1, human vasopressin V1b receptor (Homo sapiens, UniProt P47901)
T1 construct: expressed in transfected cells; host or cells: CHO-K1 (cell line hV1b-3H2_CHO), membrane preparation
T1 sequence (P47901 1-424): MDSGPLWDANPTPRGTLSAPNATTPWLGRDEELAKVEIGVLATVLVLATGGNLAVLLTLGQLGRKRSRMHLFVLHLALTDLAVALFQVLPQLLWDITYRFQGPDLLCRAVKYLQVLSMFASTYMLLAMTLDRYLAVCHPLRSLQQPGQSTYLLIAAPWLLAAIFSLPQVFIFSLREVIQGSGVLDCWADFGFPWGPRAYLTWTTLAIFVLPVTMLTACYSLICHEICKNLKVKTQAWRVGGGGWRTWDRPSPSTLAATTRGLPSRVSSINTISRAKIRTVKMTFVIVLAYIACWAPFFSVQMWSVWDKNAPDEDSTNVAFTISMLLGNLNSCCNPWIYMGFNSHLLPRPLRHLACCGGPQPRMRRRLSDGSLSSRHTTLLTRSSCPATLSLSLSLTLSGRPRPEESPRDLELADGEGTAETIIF
Assay: Vasopressin V1b receptor binding assay
Conditions: membranes from CHO-K1 cells with stably expressed human V1b receptors; displacement of 1.5 nM 3H-AVP; read-out: V1b receptor affinity (affinity constant Ki)
In short: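 Ki values come from nonlinear regression of triplicate scintillation counts after filtration. Test compound (2% DMSO in the mixture) and radioligand were incubated 60 min at room temperature with human V1b membranes in pH 7.4 Tris buffer with 10 mM MgCl2 and 0.1% BSA. Nonspecific binding was set with 1 uM AVP.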

SMILES	Ki
COc1ccc(S(=O)(=O)n2c(=O)n(C(C(=O)N3CCCCC3)c3ccccc3)c3cc(Cl)ccc32)cc1 (stereo not drawn) [Example 101, 5-Chloro-1-(4-methoxybenzenesulfonyl)-3-(2-oxo-1-phenyl-2-piperidin-1-ylethyl)-1,3-dihydrobenzimidazol-2-one]	500 to 10000 nM
COc1ccc(S(=O)(=O)n2c(=O)n(C(C(=O)N3CCCC3)c3ccccc3)c3cc(Cl)ccc32)cc1 (stereo not drawn) [Example 102, 5-Chloro-1-(4-methoxybenzenesulfonyl)-3-(2-oxo-1-phenyl-2-pyrrolidin-1-ylethyl)-1,3-dihydrobenzimidazol-2-one]	100 to 500 nM
COc1ccc(S(=O)(=O)n2c(=O)n(C(C(=O)N3CCN(c4ccccc4)CC3)c3ccccc3)c3cc(Cl)ccc32)cc1 (stereo not drawn) [Example 105, 5-Chloro-1-(4-methoxybenzenesulfonyl)-3-[2-oxo-1-phenyl-2-(4-phenylpiperazin-1-yl)ethyl]-1,3-dihydrobenzimidazol-2-one]	500 to 10000 nM
CCCN1CCN(C2CCN(C(=O)C(c3ccccc3)n3c(=O)n(S(=O)(=O)c4ccc(OC)cc4)c4ccccc43)C2)CC1 (stereo not drawn) [Example 107, 1-(4-Methoxybenzenesulfonyl)-3-{2-oxo-1-phenyl-2-[3-(4-propylpiperazin-1-yl)-pyrrolidin-1-yl]ethyl}-1,3-dihydrobenzimidazol-2-one]	< 100 nM
CCCN1CCN(C2CCN(C(=O)Cn3c(=O)n(S(=O)(=O)c4ccc(OC)cc4)c4ccc(Cl)cc43)C2)CC1 (stereo not drawn) [Example 108, 5-Chloro-1-(4-methoxybenzenesulfonyl)-3-{2-oxo-2-[3-(4-propylpiperazin-1-yl)-pyrrolidin-1-yl]-ethyl}-1,3-dihydrobenzimidazol-2-one]	500 to 10000 nM
COc1ccc(S(=O)(=O)n2c(=O)n(C(C(=O)N3CCC[C@H]3c3ncon3)c3ccccc3)c3cc(Cl)ccc32)cc1 (stereo partly drawn) [Example 110, 5-Chloro-1-(4-methoxybenzenesulfonyl)-3-[2-((S)-2-[1,2,4]oxadiazol-3-ylpyrrolidin-1-yl)-2-oxo-1-phenylethyl]-1,3-dihydrobenzimidazol-2-one]	100 to 500 nM
CCN(CC)CCN(C)C(=O)C(c1ccccc1)n1c(=O)n(S(=O)(=O)c2ccc(OC)cc2)c2ccc(Cl)cc21 (stereo not drawn) [Example 119, 2-[6-Chloro-3-(4-methoxybenzenesulfonyl)-2-oxo-2,3-dihydrobenzimidazol-1-yl]-N-(2-diethylaminoethyl)-N-methyl-2-phenylacetamide]	100 to 500 nM
COc1ccc(S(=O)(=O)n2c(=O)n(C(C(=O)N3CCCN(C)CC3)c3ccccc3)c3cc(Cl)ccc32)cc1 (stereo not drawn) [Example 126, 5-Chloro-1-(4-methoxybenzenesulfonyl)-3-[2-(4-methyl-[1,4]diazepan-1-yl)-2-oxo-1-phenylethyl]-1,3-dihydrobenzoimidazol-2-one]	100 to 500 nM
COc1ccc(S(=O)(=O)n2c(=O)n(C(C(=O)N3CCN(C4CCN(C(=O)OC(C)(C)C)CC4)CC3)c3ccccc3)c3cc(Cl)ccc32)cc1 (stereo not drawn) [Example 127, tert-Butyl 4-(4-{2-[6-chloro-3-(4-methoxybenzenesulfonyl)-2-oxo-2,3-dihydrobenzimidazol-1-yl]-2-phenylacetyl}piperazin-1-yl)piperidin-1-carboxylate]	500 to 10000 nM
CCCN1CCC(N2CCN(C(=O)C(c3ccccc3)n3c(=O)n(S(=O)(=O)c4ccc(OC)cc4)c4ccc(Cl)cc43)CC2)CC1 (stereo not drawn) [Example 129, 5-Chloro-1-(4-methoxybenzenesulfonyl)-3-{2-oxo-1-phenyl-2-[4-(1-propylpiperidin-4-yl)piperazin-1-yl]ethyl}-1,3-dihydrobenzimidazol-2-one]	100 to 500 nM
COc1ccc(S(=O)(=O)n2c(=O)n(C(C(=O)NCCN3CCN(C(=O)OC(C)(C)C)CC3)c3ccccc3)c3cc(Cl)ccc32)cc1 (stereo not drawn) [Example 130, tert-Butyl 4-(2-{2-[6-chloro-3-(4-methoxybenzenesulfonyl)-2-oxo-2,3-dihydrobenzimidazol-1-yl]-2-phenylacetylamino}ethyl)piperazine-1-carboxylate]	500 to 10000 nM

Further lines, results first:

Ki	SMILES
500 to 10000 nM	COc1ccc(S(=O)(=O)n2c(=O)n(C(C(=O)Nc3ccccc3)c3ccccc3)c3cc(Cl)ccc32)cc1 (stereo not drawn) [Example 103, 2-[6-Chloro-3-(4-methoxybenzenesulfonyl)-2-oxo-2,3-dihydrobenzimidazol-1-yl]-2,N-diphenylacetamide]
500 to 10000 nM	CCN(CC)C(=O)C(c1ccccc1)n1c(=O)n(S(=O)(=O)c2ccc(OC)cc2)c2ccc(Cl)cc21 (stereo not drawn) [Example 104, 2-[6-Chloro-3-(4-methoxybenzenesulfonyl)-2-oxo-2,3-dihydrobenzimidazol-1-yl]-N,N-diethyl-2-phenylacetamide]
< 100 nM	COc1ccc(S(=O)(=O)n2c(=O)n(C(C(=O)N(C)CCN(C)C)c3ccccc3)c3cc(Cl)ccc32)cc1 (stereo not drawn) [Example 106, 2-[6-Chloro-3-(4-methoxybenzenesulfonyl)-2-oxo-2,3-dihydrobenzimidazol-1-yl]-N-(2-dimethylaminoethyl)-N-methyl-2-phenylacetamide]
500 to 10000 nM	COc1ccc(S(=O)(=O)n2c(=O)n(C(C(=O)NCc3ccccn3)c3ccccc3)c3cc(Cl)ccc32)cc1 (stereo not drawn) [Example 111, 2-[6-Chloro-3-(4-methoxybenzenesulfonyl)-2-oxo-2,3-dihydrobenzimidazol-1-yl]-2-phenyl-N-pyridin-2-ylmethylacetamide]
500 to 10000 nM	COc1ccc(S(=O)(=O)n2c(=O)n(C(C(=O)NCc3cccnc3)c3ccccc3)c3cc(Cl)ccc32)cc1 (stereo not drawn) [Example 112, 2-[6-Chloro-3-(4-methoxybenzenesulfonyl)-2-oxo-2,3-dihydrobenzimidazol-1-yl]-2-phenyl-N-pyridin-3-ylmethylacetamide]
500 to 10000 nM	COc1ccc(S(=O)(=O)n2c(=O)n(C(C(=O)NCCCN3CCOCC3)c3ccccc3)c3cc(Cl)ccc32)cc1 (stereo not drawn) [Example 113, 2-[6-Chloro-3-(4-methoxybenzenesulfonyl)-2-oxo-2,3-dihydrobenzimidazol-1-yl]-N-(3-morpholin-4-yl-propyl)-2-phenyl-acetamide]
500 to 10000 nM	COc1ccc(S(=O)(=O)n2c(=O)n(C(C(=O)NCCN3CCCCC3)c3ccccc3)c3cc(Cl)ccc32)cc1 (stereo not drawn) [Example 114, 2-[6-Chloro-3-(4-methoxybenzenesulfonyl)-2-oxo-2,3-dihydrobenzimidazol-1-yl]-2-phenyl-N-(2-piperidin-1-ylethyl)acetamide]
100 to 500 nM	COc1ccc(S(=O)(=O)n2c(=O)n(C(C(=O)NCCN3CCN(C)CC3)c3ccccc3)c3cc(Cl)ccc32)cc1 (stereo not drawn) [Example 115, 2-[6-Chloro-3-(4-methoxybenzenesulfonyl)-2-oxo-2,3-dihydrobenzimidazol-1-yl]-N-[2-(4-methylpiperazin-1-yl)ethyl]-2-phenylacetamide]
500 to 10000 nM	COc1ccc(S(=O)(=O)n2c(=O)n(C(C(=O)NCCc3c[nH]cn3)c3ccccc3)c3cc(Cl)ccc32)cc1 (stereo not drawn) [Example 116]
100 to 500 nM	COc1ccc(S(=O)(=O)n2c(=O)n(C(C(=O)N(C)CCCN(C)C)c3ccccc3)c3cc(Cl)ccc32)cc1 (stereo not drawn) [Example 117, 2-[6-Chloro-3-(4-methoxybenzenesulfonyl)-2-oxo-2,3-dihydrobenzimidazol-1-yl]-N-(3-dimethylaminopropyl)-N-methyl-2-phenylacetamide]
< 100 nM	CCN(CCN(C)C)C(=O)C(c1ccccc1)n1c(=O)n(S(=O)(=O)c2ccc(OC)cc2)c2ccc(Cl)cc21 (stereo not drawn) [Example 118, 2-[6-Chloro-3-(4-methoxybenzenesulfonyl)-2-oxo-2,3-dihydrobenzimidazol-1-yl]-N-(2-dimethylaminoethyl)-N-ethyl-2-phenylacetamide]
500 to 10000 nM	COc1ccc(S(=O)(=O)n2c(=O)n(C(C(=O)N(C)CCc3ccccn3)c3ccccc3)c3cc(Cl)ccc32)cc1 (stereo not drawn) [Example 120, 2-[6-Chloro-3-(4-methoxybenzenesulfonyl)-2-oxo-2,3-dihydrobenzimidazol-1-yl]-N-methyl-2-phenyl-N-(2-pyridin-2-ylethyl)acetamide]
500 to 10000 nM	COc1ccc(S(=O)(=O)n2c(=O)n(C(C(=O)NCCCO)c3ccccc3)c3cc(Cl)ccc32)cc1 (stereo not drawn) [Example 121, 2-[6-Chloro-3-(4-methoxybenzenesulfonyl)-2-oxo-2,3-dihydrobenzimidazol-1-yl]-N-(3-hydroxypropyl)-2-phenylacetamide]
500 to 10000 nM	CCCOCCNC(=O)C(c1ccccc1)n1c(=O)n(S(=O)(=O)c2ccc(OC)cc2)c2ccc(Cl)cc21 (stereo not drawn) [Example 122, 2-[6-Chloro-3-(4-methoxybenzenesulfonyl)-2-oxo-2,3-dihydrobenzimidazol-1-yl]-2-phenyl-N-(2-propoxyethyl)acetamide]
100 to 500 nM	COc1ccc(S(=O)(=O)n2c(=O)n(C(C(=O)NCCCCN(C)C)c3ccccc3)c3cc(Cl)ccc32)cc1 (stereo not drawn) [Example 124, 2-[6-Chloro-3-(4-methoxybenzenesulfonyl)-2-oxo-2,3-dihydrobenzimidazol-1-yl]—N-(4-dimethylaminobutyl)-2-phenylacetamide]
500 to 10000 nM	COc1ccc(S(=O)(=O)n2c(=O)n(C(C(=O)NCCCN3CCCC3=O)c3ccccc3)c3cc(Cl)ccc32)cc1 (stereo not drawn) [Example 125, 2-[6-Chloro-3-(4-methoxybenzenesulfonyl)-2-oxo-2,3-dihydrobenzimidazol-1-yl]-N-[3-(2-oxopyrrolidin-1-yl)propyl]-2-phenylacetamide]
